Assay results published in PubChem BioAssay AID1919003 (Molecular Pharmacology Branch, DTP, NCI, 2023).

System: 786-0 complex spheroids with HUVEC/MSC, growth % test/control
Experiment: Anticancer human tumor 786-0 cell line growth inhibition [AhR];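 also: compound exposure lasted seven days before the read-out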
Conditions: for IC50: curve of first compound; for viability, T/C: stronger effect = lower value
How it was run: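 Spheroids combined tumor cells with HUVEC endothelial cells and human MSCs as stroma. AhR antagonists were paired with standard or investigational drugs, each dosed in half-log steps down from near clinical Cmax, or from 10 microM where Cmax was unknown.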

Compound CCc1c2c(nc3ccc(O)cc13)-c1cc3c(c(=O)n1C2)COC(=O)[C@]3(O)CC + Cc1cncc(-c2nc(NCCc3c[nH]c4ccccc34)c3ncn(C(C)C)c3n2)c1 has an IC50 (second compound 0.1 µM) of 6.02 nM, an IC50 (second compound 0.316 µM) of 6.06 nM and an IC50 (second compound 1 µM) of 5.1 nM. For the same compound, the IC50 (second compound 3.16 µM) was 1.52 nM, the IC50 (second compound 10 µM) was < 0.949 nM and the viability, T/C (second compound 0.1 µM, first compound 0.000949 µM) was 106%. For the same compound, the viability, T/C (second compound 0.1 µM, first compound 0.003 µM) was 93.5%, the viability, T/C (second compound 0.1 µM, first compound 0.00949 µM) was 21.5% and the viability, T/C (second compound 0.1 µM, first compound 0.03 µM) was 5.21%. It also gave a viability, T/C (second compound 0.1 µM, first compound 0.0949 µM) of 2.42%, a viability, T/C (second compound 0.1 µM, first compound 0.3 µM) of 2.24% and a viability, T/C (second compound 0.316 µM, first compound 0.000949 µM) of 112%. The viability, T/C (second compound 0.316 µM, first compound 0.003 µM) was 95.4%, the viability, T/C (second compound 0.316 µM, first compound 0.00949 µM) was 21% and the viability, T/C (second compound 0.316 µM, first compound 0.03 µM) was 6.67%. For the same compound, the viability, T/C (second compound 0.316 µM, first compound 0.0949 µM) was 3.31%, the viability, T/C (second compound 0.316 µM, first compound 0.3 µM) was 2.09% and the viability, T/C (second compound 1 µM, first compound 0.000949 µM) was 99.5%. The viability, T/C (second compound 1 µM, first compound 0.003 µM) was 79.5%, the viability, T/C (second compound 1 µM, first compound 0.00949 µM) was 15.4% and the viability, T/C (second compound 1 µM, first compound 0.03 µM) was 5.63%. It also gave a viability, T/C (second compound 1 µM, first compound 0.0949 µM) of 2.53%, a viability, T/C (second compound 1 µM, first compound 0.3 µM) of 3.71% and a viability, T/C (second compound 3.16 µM, first compound 0.000949 µM) of 65.7%. It also gave a viability, T/C (second compound 3.16 µM, first compound 0.003 µM) of 27.2%, a viability, T/C (second compound 3.16 µM, first compound 0.00949 µM) of 4.92% and a viability, T/C (second compound 3.16 µM, first compound 0.03 µM) of 2.43%. It also gave a viability, T/C (second compound 3.16 µM, first compound 0.0949 µM) of 1.6%, a viability, T/C (second compound 3.16 µM, first compound 0.3 µM) of 1.37% and a viability, T/C (second compound 10 µM, first compound 0.000949 µM) of 1.65%. For the same compound, the viability, T/C (second compound 10 µM, first compound 0.003 µM) was 0.61%, the viability, T/C (second compound 10 µM, first compound 0.00949 µM) was 0.43% and the viability, T/C (second compound 10 µM, first compound 0.03 µM) was 0.38%. It also gave a viability, T/C (second compound 10 µM, first compound 0.0949 µM) of 0.28% and a viability, T/C (second compound 10 µM, first compound 0.3 µM) of 0.36%.
